The source of these data is patent US11524963B2, “Substituted pyrazolo[3,4-d]pyrimidines as RET kinase inhibitors” (Array Biopharma Inc., priority 2018, dated 2022).

What all share (type): biochemical
Assay [1] concerns the target RET kinase Wild Type (Homo sapiens, UniProt P07949). The assay can be described thus: RET Enzyme Assay (HTRF KinEASE-TK), Wild Type.
Assay [2] has as its target RET kinase V804M (Homo sapiens, UniProt P07949, V804M). The assay is described as follows: RET Enzyme Assay (HTRF KinEASE-TK), V804M. For orientation: TR-FRET usually uses a lanthanide donor and a delayed reading to cut background.
Assay [3] deals with RET kinase M918T (Homo sapiens, UniProt P07949, M918T). The assay is described as follows: RET Enzyme Assay (HTRF KinEASE-TK), M918T.
The target in assay [4] is RET kinase G810R (Homo sapiens, UniProt P07949, G810R). The assay can be described thus: RET Enzyme Assay (HTRF KinEASE-TK), G810R.
In assay [5] the target is RET kinase G810S (Homo sapiens, UniProt P07949, G810S). The assay can be described thus: RET Enzyme Assay (HTRF KinEASE-TK), G810S.

Each structure is given as a SMILES string.

RET kinase G810R, sequence (P07949 29-1114 G810R): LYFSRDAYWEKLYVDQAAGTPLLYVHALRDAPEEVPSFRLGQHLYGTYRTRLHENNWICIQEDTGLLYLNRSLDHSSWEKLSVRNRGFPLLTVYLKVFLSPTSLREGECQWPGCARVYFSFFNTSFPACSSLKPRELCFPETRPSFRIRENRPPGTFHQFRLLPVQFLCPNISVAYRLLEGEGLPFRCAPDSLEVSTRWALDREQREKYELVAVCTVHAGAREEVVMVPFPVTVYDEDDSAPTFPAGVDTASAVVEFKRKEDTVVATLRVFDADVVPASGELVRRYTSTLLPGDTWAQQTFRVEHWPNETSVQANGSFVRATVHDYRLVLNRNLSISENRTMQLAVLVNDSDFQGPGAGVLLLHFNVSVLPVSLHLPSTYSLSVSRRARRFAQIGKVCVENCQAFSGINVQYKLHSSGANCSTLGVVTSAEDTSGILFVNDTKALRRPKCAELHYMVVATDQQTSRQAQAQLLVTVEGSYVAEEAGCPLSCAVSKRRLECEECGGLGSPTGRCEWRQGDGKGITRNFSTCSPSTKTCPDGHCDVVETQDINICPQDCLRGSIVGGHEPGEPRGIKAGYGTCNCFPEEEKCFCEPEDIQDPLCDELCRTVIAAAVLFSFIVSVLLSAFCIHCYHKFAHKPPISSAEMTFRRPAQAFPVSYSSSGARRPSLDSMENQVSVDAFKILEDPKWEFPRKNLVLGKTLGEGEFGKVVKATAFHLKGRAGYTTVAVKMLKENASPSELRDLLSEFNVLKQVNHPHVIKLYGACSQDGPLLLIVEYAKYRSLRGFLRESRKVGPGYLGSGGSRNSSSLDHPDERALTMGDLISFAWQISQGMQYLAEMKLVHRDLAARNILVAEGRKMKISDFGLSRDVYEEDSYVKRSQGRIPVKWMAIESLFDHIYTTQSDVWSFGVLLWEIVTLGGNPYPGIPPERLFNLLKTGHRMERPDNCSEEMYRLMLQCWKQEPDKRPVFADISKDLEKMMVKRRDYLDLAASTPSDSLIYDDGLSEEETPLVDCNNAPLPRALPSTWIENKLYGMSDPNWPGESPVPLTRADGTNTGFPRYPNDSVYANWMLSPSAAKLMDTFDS
RET kinase M918T, sequence (P07949 29-1114 M918T): as the sequence (P07949 29-1114 G810R) above, with R782G, M890T counted along it
RET kinase G810S, sequence (P07949 29-1114 G810S): as the sequence (P07949 29-1114 G810R) above, with R782S counted along it
RET kinase V804M, sequence (P07949 29-1114 V804M): as the sequence (P07949 29-1114 G810R) above, with V776M, R782G counted along it
RET kinase Wild Type, sequence (P07949 29-1114): as the sequence (P07949 29-1114 G810R) above, with R782G counted along it

Consider `CC(C)n1nc(-c2noc(C3CC3)c2I)c2c(N)ncnc21` [Example 12, 3-(5-cyclopropyl-4-iodoisoxazol-3-yl)-1-isopropyl-1H-pyrazolo[3,4-d]pyrimidin-4-amine], for which the IC50 (as a rule, the concentration at which inhibition is half-maximal) in assay [1] came out at 0.0053 µM; in assay [2], 0.0151 µM; in assay [3] it was 0.0041 µM; in assay [4], 0.0114 µM; in assay [5] it was 0.0243 µM.

Take `CC(C)n1nc(-c2noc(C3CC3)c2-c2cccnc2)c2c(N)ncnc21` [Example 7, 3-(5-cyclopropyl-4-(pyridin-3-yl)isoxazol-3-yl)-1-isopropyl-1H-pyrazolo[3,4-d]pyrimidin-4-amine]: the IC50 in assay [1] stood at 0.0071 µM; in assay [2] it was 0.0522 µM; in assay [3], 0.0087 µM; in assay [4] it was 0.0084 µM; in assay [5], 0.0389 µM.

For the compound `Cc1cnn(C2CCCCO2)c1-c1nn(C(C)C)c2ncnc(N)c12` (stereo not drawn) [Example 28, 1-isopropyl-3-(4-methyl-1-(tetrahydro-2H-pyran-2-yl)-1H-pyrazol-5-yl)-1H-pyrazolo[3,4-d]pyrimidin-4-amine], the IC50 in assay [1] was 0.379 µM; in assay [2] it was 0.276 µM.

As to `CC(C)n1nc(-c2noc(C3CC3)c2-c2ccncc2)c2c(N)ncnc21` [Example 8, 3-(5-cyclopropyl-4-(pyridin-4-yl)isoxazol-3-yl)-1-isopropyl-1H-pyrazolo[3,4-d]pyrimidin-4-amine], the IC50 in assay [1] stood at 0.0029 µM; in assay [2], 0.029 µM; in assay [3], 0.0039 µM; in assay [4], 0.0039 µM; in assay [5] it was 0.0206 µM.

As for `CC(C)n1nc(-c2noc(C3CC3)c2C2=CCOCC2)c2c(N)ncnc21` [Example 4, 3-(5-cyclopropyl-4-(3,6-dihydro-2H-pyran-4-yl)isoxazol-3-yl)-1-isopropyl-1H-pyrazolo[3,4-d]pyrimidin-4-amine], the IC50 in assay [1] stood at 0.0052 µM; in assay [2] it was 0.0288 µM; in assay [3], 0.0076 µM; in assay [4], 0.0135 µM; in assay [5] it was 0.0373 µM.

Consider `CC(C)n1nc(-c2noc(C3CC3)c2-c2cnn(C)c2)c2c(N)ncnc21` [Example 3, 3-(5-cyclopropyl-4-(1-methyl-1H-pyrazol-4-yl)isoxazol-3-yl)-1-isopropyl-1H-pyrazolo[3,4-d]pyrimidin-4-amine], for which the IC50 in assay [1] came out at 0.0071 µM; in assay [2], 0.0525 µM; in assay [3], 0.0122 µM; in assay [4], 0.0125 µM; in assay [5], 0.0466 µM.
